Laboratory results reported in US4171299A, “Polypeptide agents for blocking the human allergic response” (The Regents of the University of California, priority 1976, dated 1979).
Peptide text beside a SMILES is read from it.

Key:
Type in all cases: in vivo
[1] = molecular target: T1, binding sites on mast cells (Homo sapiens, UniProt P12319); assay: Prausnitz-Kustner (P-K) reaction blocking activity assay in human volunteers; settings: for inhibition, individual high: highest individual of six; for inhibition, individual high / inhibition, individual low: same conditions as the average; for inhibition, individual low: lowest individual of six; for average % inhibition (P-K wheal): six individuals, peptide approx. 6 μg/ml, 0.1 ml intradermally per site, 0.05 ml diluted P-K serum containing 0.2 ng IgE, guinea pig antigen prick-puncture, versus control wheal
T1 construct: endogenous in cells; host or cells: skin mast cells of living human volunteers (intradermal injection sites on back or forearm)
T1 sequence (P12319 26-257): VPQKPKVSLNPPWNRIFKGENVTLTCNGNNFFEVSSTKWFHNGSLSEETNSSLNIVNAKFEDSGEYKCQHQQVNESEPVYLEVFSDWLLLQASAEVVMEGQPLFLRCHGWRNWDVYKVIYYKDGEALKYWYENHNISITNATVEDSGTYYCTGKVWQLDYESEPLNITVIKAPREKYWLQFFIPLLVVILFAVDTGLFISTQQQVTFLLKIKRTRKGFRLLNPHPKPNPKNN
T1 sequence (Q01362 1-244 partner): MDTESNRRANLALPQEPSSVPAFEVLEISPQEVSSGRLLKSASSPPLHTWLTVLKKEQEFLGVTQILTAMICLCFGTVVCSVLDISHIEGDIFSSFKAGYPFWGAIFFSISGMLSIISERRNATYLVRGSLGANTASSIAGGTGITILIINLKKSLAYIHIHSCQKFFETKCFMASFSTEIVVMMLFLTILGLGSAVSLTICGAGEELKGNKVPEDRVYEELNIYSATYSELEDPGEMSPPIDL
T1 sequence (P30273 19-86 partner): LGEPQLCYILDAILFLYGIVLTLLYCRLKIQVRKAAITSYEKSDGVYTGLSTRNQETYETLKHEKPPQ
Protocol: The "blocking" activity of the polypeptides of the invention can be assayed by utilization of the classic Prausnitz-Kustner (P-K) reaction. In this classic method, a known allergic serum i.e., one that contains IgE specific for a known antigen or allergen is injected intradermally into a human volunteer. After waiting a period of time, e.g. 20 or more hours, the injected sites are then challenged with a prick or injection of a solution of an antigen that is specific for the IgE in the injected serum. Within the next 10 to 30 minutes a positive reaction is evidenced by the development of a wheal (and flare) at the injected site. The more extensive the diameter of the wheal the more intensive is the allergic reaction. That is, a more extensive wheal indicates a greater release of histamine into the tissues at the injected site. Conversely, the development of wheals of lesser diameter or the absence of any wheal at all indicates diminished allergic reaction and/or no allergic reaction at all. The P-K reaction as noted above is a classic test and is universally known and utilized by allergists.
As noted above, the classic P-K reaction is utilized to assay the "blocking" abilities of the polypeptides utilized in the present invention.
The following describes assays of a number of polypeptides useful in the present invention, the synthesis of which was described hereinabove.
All of these assays were performed using a single proven safe P-K donor serum that contains IgE specific for guinea pig allergens.
Peptide solutions were either injected intradermally 1 to 24 hours prior to the P-K serum, or mixed with dilutions of the P-K serum for simultaneous injection. Initial tests were performed using the P-K serum at from 1:4 to 1:200 dilutions. Further studies were run at a fixed P-K dilution of 1:32 while the invention peptide solutions were varied to contain from about 1 mM to […] of the peptide being tested. Injected sites on the volunteers were challenged by prick-puncture of guinea pig BCA 1:40 w/v (purchased from Berkeley Biologicals, Inc.).
Human volunteers were chosen who had serum IgE levels below 100 U/ml (242 ng/ml) which levels have been previously shown to assure successful P-K reactivity. […] P-K and skin tests were performed on the back and/or forearm. Multiple test sites of approximately 25 mm diameter were circled with a marking pen and all injections were made within the circled skin areas.
A typical sequence of events was intradermal injection of 0.1 ml of the peptide solution or control buffered saline diluent solution; followed in 1 to 24 hours by intradermal injection of 0.05 ml. of P-K serum into each of the previously injected sites. After 20 to 24 hours had elapsed, each site was prick-punctured with the antigen solution, blotted dry in 5 minutes and measurements of the wheal and flare in both their narrowest and widest diameter were made three times, usually 15, 20 and 25 minutes after prick-punctures.
Blocking activity assays were undertaken with the following polypeptides: Asp-Pro-Arg; Ser-Asp-Pro-Arg; Asp-Ser-Asp-Pro-Arg; and Ala-Asp-Ser-Asp-Pro-Arg. For comparison testing, Asp-Thr-Glu-Ala-Arg and tosyl-L-arginine sarcosine methylester (TASME), were also synthesized and tested.
The above-noted polypeptides were assayed as noted above on six different individuals. Results were as follows:
The results, as noted above, present the average of measurements at three time intervals, in duplicate, for each reaction in each individual, subtracted from the average control wheal measurements, and divided by the average measurement of each individual's control wheal. Control wheals in different individuals varied from 8 to 40 mm^2 with a mean of 17 mm^2. Each peptide was utilized at approximately 6 μg/ml dilution and 0.1 ml. was injected at each site, followed by 0.05 ml. of diluted P-K serum containing 0.2 ng. of IgE. […]

[2] = molecular target: T2, IgE already bound to mast cell sites (Homo sapiens, UniProt P12319); assay: Displacement test: direct guinea pig antigen skin challenge in a naturally sensitive individual; settings: single sensitive individual; for wheal smaller than at buffered saline diluent site: challenge twenty-four hours after intradermal injection of approx. 2 nM
T2 construct: endogenous in cells; host or cells: skin mast cells of one naturally guinea-pig-sensitive person, carrying own IgE
T2 sequence (P12319 26-257): T1 sequence (P12319 26-257)
T2 sequence (Q01362 1-244 partner): T1 sequence (Q01362 1-244 partner)
T2 sequence (P30273 19-86 partner): T1 sequence (P30273 19-86 partner)
Protocol: It has also been determined that the active polypeptides of the invention appear to have the ability to "displace" IgE from mast cell sites as well as to prevent the binding of IgE to these sites. In a single test, an individual known to have extreme sensitivity to guinea pig antigens, that is a person with a high natural concentration of guinea-pig-antigen-sensitive IgE, was injected with polypeptides in accordance with the invention, and […] reaction to guinea pig antigen was noted.
Specifically, approximately 2 nM each of Asp-Ser-Asp-Pro-Arg and Ala-Asp-Ser-Asp-Pro-Arg were each intradermally injected into 3 marked sites. For comparison, TASME, as well as a control of the buffer diluent alone, was also each injected into 3 marked sites. At one, five and twenty-four hours subsequent to the polypeptide and control injection, one of each peptide and one diluent site were prick-puncture challenged with guinea pig antigen. […] However, at the twenty-four hour challenge, the wheal at the Asp-Ser-Asp-Pro-Arg site was approximately 45% smaller; while at the Ala-Asp-Ser-Asp-Pro-Arg site, the wheal was approximately 23% smaller.

DBA white mice = assay: Acute toxicity in DBA white mice; settings: 24 to 72 hours post-injection; for post-mortem gross and microscopic examination of tissues and organs: 1.4 ml i.d./s.c./i.v./i.p.
Protocol: Acute toxicity was determined as follows:
DBA white mice (average weight 15 g.) were each injected with 1.4 ml. of a solution of the peptide in phosphate buffered saline, pH 7.4, as follows:
0.1 ml.×3 --subcutaneously
0.6 ml.--intraperitoneally
The peptides and concentrations used were as follows:
Ala-Asp-Ser-Asp-Pro-Arg (Example 4)--5 μg/ml--(375 mg/kg)--6 mice
Asp-Ser-Asp-Pro-Arg (Example 3)--10 μg/ml--(1 mg/kg)--8 mice
Asp-Ser-Asp-Pro-Arg (Example 3)--13 μg/ml--(1.3 mg/kg)--8 mice

C[C@H](N)C(=O)N[C@@H](CC(=O)O)C(=O)N[C@@H](CO)C(=O)N[C@@H](CC(=O)O)C(=O)N1CCC[C@H]1C(=O)N[C@@H](CCCNC(=N)N)C(=O)O [Ala-Asp-Ser-Asp-Pro-Arg] (H-ADSDPR-OH)
inhibition, individual high [1]: 61% | inhibition, individual low [1]: 10% | average % inhibition (P-K wheal) [1]: 46% | wheal smaller than at buffered saline diluent site [2]: approximately 23% | post-mortem gross and microscopic examination of tissues and organs (DBA white mice; 5 μg/ml (375 mg/kg), 6 mice): no local or systemic toxicological abnormalities | survival of mice (DBA white mice; 5 μg/ml (375 mg/kg), 6 mice): all still living

N=C(N)NCCC[C@H](NC(=O)[C@@H]1CCCN1C(=O)[C@@H](N)CC(=O)O)C(=O)O [Asp-Pro-Arg] (H-Asp-Pro-Arg-OH)
inhibition, individual high [1]: 38% | inhibition, individual low [1]: 0% | average % inhibition (P-K wheal) [1]: 15%

N=C(N)NCCC[C@H](NC(=O)[C@@H]1CCCN1C(=O)[C@H](CC(=O)O)NC(=O)[C@H](CO)NC(=O)[C@@H](N)CC(=O)O)C(=O)O [Asp-Ser-Asp-Pro-Arg] (H-DSDPR-OH)
inhibition, individual high [1]: 89% | inhibition, individual low [1]: 60% | average % inhibition (P-K wheal) [1]: 72% | wheal smaller than at buffered saline diluent site [2]: approximately 45% | post-mortem gross and microscopic examination of tissues and organs (DBA white mice; 10 μg/ml (1 mg/kg), 8 mice): no local or systemic toxicological abnormalities | survival of mice (DBA white mice; 10 μg/ml (1 mg/kg), 8 mice): all still living | post-mortem gross and microscopic examination of tissues and organs (DBA white mice; 13 μg/ml (1.3 mg/kg), 8 mice): no local or systemic toxicological abnormalities | survival of mice (DBA white mice; 13 μg/ml (1.3 mg/kg), 8 mice): all still living

C[C@H](NC(=O)[C@H](CCC(=O)O)NC(=O)[C@@H](NC(=O)[C@@H](N)CC(=O)O)[C@@H](C)O)C(=O)N[C@@H](CCCNC(=N)N)C(=O)O [Asp-Thr-Glu-Ala-Arg, reference compound] (H-DTEAR-OH)
inhibition, individual high [1]: 80% | inhibition, individual low [1]: 30% | average % inhibition (P-K wheal) [1]: 58%

N=C(N)NCCC[C@H](NC(=O)[C@@H]1CCCN1C(=O)[C@H](CC(=O)O)NC(=O)[C@@H](N)CO)C(=O)O [Ser-Asp-Pro-Arg] (H-SDPR-OH)
inhibition, individual high [1]: 50% | inhibition, individual low [1]: 0% | average % inhibition (P-K wheal) [1]: 18%

tosyl-L-arginine sarcosine methylester [TASME, reference compound]
inhibition, individual high [1]: 40% | inhibition, individual low [1]: 0% | average % inhibition (P-K wheal) [1]: 24% | inhibition of the wheal and flare reaction ([2]; challenge one and five hours after intradermal injection of approx. 2 nM): No inhibition | wheal smaller than at buffered saline diluent site [2]: No reduction in the size of the wheal
